Patent publication US7674789B2, “Compounds” (Glaxo Group Limited, priority 2005, dated 2010)
Structures can show the parent of a compound that is named as a salt.

tested on: influx of neutrophils to the lung in LPS-challenged rats; experiment: Rat LPS neutrophilia model; assay type: in vivo; conditions: intratracheal compound 15 min-24 hours before LPS aerosol (100 ug/ml, 15 min), lavage 4 hours later, in at least one of the range of conditions tested
Procedure: Rat LPS Neutrophilia Model
The effect of compounds on the influx of neutrophils to the lung in LPS-challenged rats is evaluated as follows. The test compound is suspended in one of the following solutions: 0.5% tween 80/PBS, 0.5% tween 80/saline, 10% EtOH/saline (with pH adjusted to 2.0, or 8.0 with HCl, or unadjusted), Saline @ pH 2.0, 6.5 or 8.0, 0.5% Tragacanth, 1% DMSO/20% Encapsin/Saline, or acidified 5% Tragacanth. The suspension process may be aided by the use of a glass homogenizer. For intratracheal administration, the animals are anesthetized with inhaled isoflurane and placed in a supine position, the trachea is intubated with a steel gavage needle (1.5 inch, 22 gauge, small ball) or a Penn-Century Microsprayer Aerosolizer (model IA-1B) and 200 ul of dosing solution is delivered. The animals are visually monitored during the recovery process, which typically occurs within two minutes.
Rats treated with compound or vehicle (15 min-24 hours pretreatment) are exposed to an LPS aerosol (100 ug/ml) for 15 min. Four hours later the rats are euthanized with pentobarbital (100 mg/kg, i.p.) and the airways are lavaged with 5 washes of 5 ml of phosphate buffered saline. The harvested cells are stained (Diffquick) and counted to determine total and differential cell data. In a typical study, macrophages represent 40-70% of the total cells, and polymorphonuclear cells 30-60% of the total cells. Inhibition of neutrophil levels relative to no compound controls is calculated based on the differential counts.
The assay has varying conditions, such as concentration, pretreat time, form of the compound (crystalline, amorphous, salts, micronised), and a wet or dry application of the compound. The data is obtained as % inhibition using a particular concentration and pretreat time.

Structure (SMILES)	inhibition of neutrophilia (neutrophil influx to the lung)
CSc1nc(-c2cc(NC(=O)c3ccsc3)ccc2C)c2c(n1)N(c1c(F)cccc1F)C(=O)NC2 [7(c), N-{3-[8-(2,6-Difluorophenyl)-2-(methylthio)-7-oxo-5,6,7,8-tetrahydropyrimido[4,5-d]pyrimidin-4-yl]-4-methylphenyl}-3-thiophenecarboxamide]	inactive
Cc1ccc(C(=O)NC(C)C)cc1-c1nc(N(C)CCN(C)C)nc2c1CNC(=O)N2c1c(F)cccc1F [Example 36, 3-{8-(2,6-difluorophenyl)-2-[[2-(dimethylamino)ethyl](methyl)amino]-7-oxo-5,6,7,8-tetrahydropyrimido[4,5-d]pyrimidin-4-yl}-4-methyl-N-(1-methylethyl)benzamide]	statistically significant inhibition of neutrophilia
Cc1ccc(C(=O)NC(C)C)cc1-c1nc(N2CCC(N3CCN(C)CC3)CC2)nc2c1CNC(=O)N2c1c(F)cccc1F [Example 72, 3-{8-(2,6-difluorophenyl)-2-[4-(4-methyl-1-piperazinyl)-1-piperidinyl]-7-oxo-5,6,7,8-tetrahydropyrimido[4,5-d]pyrimidin-4-yl}-4-methyl-N-(1-methylethyl)benzamide]	statistically significant inhibition of neutrophilia
Cc1ccc(C(=O)Nc2ccc(F)cc2)cc1-c1nc(NCCN(C)C)nc2c1CNC(=O)N2c1c(F)cccc1F [8(c), 3-(8-(2,6-difluorophenyl)-2-{[2-(dimethylamino)ethyl]amino}-7-oxo-5,6,7,8-tetrahydropyrimido[4,5-d]pyrimidin-4-yl)-N-(4-fluorophenyl)-4-methylbenzamide]	statistically significant inhibition of neutrophilia
Cc1ccc(C(=O)Nc2ccc(F)cc2)cc1-c1nc(N2CCC(N3CCCC3)CC2)nc2c1CNC(=O)N2c1c(F)cccc1F [86(c), 3-{8-(2,6-difluorophenyl)-7-oxo-2-[4-(1-pyrrolidinyl)-1-piperidinyl]-5,6,7,8-tetrahydropyrimido[4,5-d]pyrimidin-4-yl}-N-(4-fluorophenyl)-4-methylbenzamide]	statistically nonsignificant inhibition of neutrophilia
CN(C)CCNc1nc(-c2cccc(C(=O)Nc3nccs3)c2)c2c(n1)N(c1c(F)cccc1F)C(=O)NC2 [Example 92, 3-(8-(2,6-difluorophenyl)-2-{[2-(dimethylamino)ethyl]amino}-7-oxo-5,6,7,8-tetrahydropyrimido[4,5-d]pyrimidin-4-yl)-N-1,3-thiazol-2-ylbenzamide]	statistically significant inhibition of neutrophilia
Cc1ccc(C(=O)NC(C)C)cc1-c1nc(N2CCC(N3CCC(C)CC3)CC2)nc2c1CNC(=O)N2c1c(F)cccc1F [Example 70, 3-[8-(2,6-difluorophenyl)-2-(4-methyl-1,4′-bipiperidin-1′-yl)-7-oxo-5,6,7,8-tetrahydropyrimido[4,5-d]pyrimidin-4-yl]-4-methyl-N-(1-methylethyl)benzamide]	statistically significant inhibition of neutrophilia
Cc1ccc(C(=O)NC(C)C)cc1-c1nc(NCCCN(C)C)nc2c1CNC(=O)N2c1c(F)cccc1F [Example 40, 3-(8-(2,6-difluorophenyl)-2-{[3-(dimethylamino)propyl]amino}-7-oxo-5,6,7,8-tetrahydropyrimido[4,5-d]pyrimidin-4-yl)-4-methyl-N-(1-methylethyl)benzamide]	statistically significant inhibition of neutrophilia
Cc1ccc(C(=O)NCc2ccccc2)cc1-c1nc(N(C)CCCN(C)C)nc2c1CNC(=O)N2c1c(F)cccc1F [Example 17, 3-{8-(2,6-Difluorophenyl)-2-[[3-(dimethylamino)propyl](methyl)amino]-7-oxo-5,6,7,8-tetrahydropyrimido[4,5-d]pyrimidin-4-yl}-4-methyl-N-(phenylmethyl)benzamide]	statistically nonsignificant inhibition of neutrophilia
Cc1ccc(C(=O)Nc2ccc(F)cc2)cc1-c1nc(NC2CCN(C)CC2)nc2c1CNC(=O)N2c1c(F)cccc1F [Example 39, 3-{8-(2,6-difluorophenyl)-2-[(1-methyl-4-piperidinyl)amino]-7-oxo-5,6,7,8-tetrahydropyrimido[4,5-d]pyrimidin-4-yl}-N-(4-fluorophenyl)-4-methylbenzamide]	statistically nonsignificant inhibition of neutrophilia
Cc1ccc(C(=O)Nc2ccc(C)c(-c3nc(N(C)C)nc4c3CNC(=O)N4c3c(F)cccc3F)c2)cc1F [Example 28, N-{3-[8-(2,6-difluorophenyl)-2-(dimethylamino)-7-oxo-5,6,7,8-tetrahydropyrimido[4,5-d]pyrimidin-4-yl]-4-methylphenyl}-3-fluoro-4-methylbenzamide]	statistically nonsignificant inhibition of neutrophilia
Cc1ccc(C(=O)Nc2ccc(C)c(-c3nc(NC4CC(C)(C)NC(C)(C)C4)nc4c3CNC(=O)N4c3c(F)cccc3F)c2)cc1F [23(e), N-(3-{8-(2,6-difluorophenyl)-7-oxo-2-[(2,2,6,6-tetramethyl-4-piperidinyl)amino]-5,6,7,8-tetrahydropyrimido[4,5-d]pyrimidin-4-yl}-4-methylphenyl)-3-fluoro-4-methylbenzamide]	statistically nonsignificant inhibition of neutrophilia
Cc1ccc(C(=O)NC(C)C)cc1-c1nc(N2CCCN(C)CC2)nc2c1CNC(=O)N2c1c(F)cccc1F [Example 179, 3-[8-(2,6-difluorophenyl)-2-(4-methylhexahydro-1H-1,4-diazepin-1-yl)-7-oxo-6,7,8-tetrahydropyrimido[4,5-d]pyrimidin-4-yl]-4-methyl-N-(1-methylethyl)benzamide trifluoroacetate]	statistically nonsignificant inhibition of neutrophilia
Cc1ccc(C(=O)Nc2ccc(F)cc2)cc1-c1nc(NCCCN(C)C)nc2c1CNC(=O)N2c1c(F)cccc1F [Example 42, 3-(8-(2,6-difluorophenyl)-2-{[3-(dimethylamino)propyl]amino}-7-oxo-5,6,7,8-tetrahydropyrimido[4,5-d]pyrimidin-4-yl)-N-(4-fluorophenyl)-4-methylbenzamide]	statistically significant inhibition of neutrophilia
Cc1c(F)cc(C(=O)Nc2ccccc2)cc1-c1nc(NCCN(C)C)nc2c1CNC(=O)N2c1c(F)cccc1F [Example 112, 3-(8-(2,6-difluorophenyl)-2-{[2-(dimethylamino)ethyl]amino}-7-oxo-5,6,7,8-tetrahydropyrimido[4,5-d]pyrimidin-4-yl)-5-fluoro-4-methyl-N-phenylbenzamide]	statistically significant inhibition of neutrophilia
CNC(=O)c1ccc(C)c(-c2nc(N3CCC(N4CCCC4)CC3)nc3c2CNC(=O)N3c2c(F)cccc2F)c1 [Example 175, 3-{8-(2,6-difluorophenyl)-7-oxo-2-[4-(1-pyrrolidinyl)-1-piperidinyl]-5,6,7,8-tetrahydropyrimido[4,5-d]pyrimidin-4-yl}-N,4-dimethylbenzamide]	inactive
CNC(=O)c1ccc(C)c(-c2nc(N3CCC(N4CCCCC4)CC3)nc3c2CNC(=O)N3c2c(F)cccc2F)c1 [Example 176, 3-[2-(1,4′-bipiperidin-1′-yl)-8-(2,6-difluorophenyl)-7-oxo-5,6,7,8-tetrahydropyrimido[4,5-d]pyrimidin-4-yl]-N,4-dimethylbenzamide]	statistically nonsignificant inhibition of neutrophilia
Cc1ccc(C(=O)Nc2nccs2)cc1-c1nc(NCCCN(C)C)nc2c1CNC(=O)N2c1c(F)cccc1F [Example 119, 3-(8-(2,6-difluorophenyl)-2-{[3-(dimethylamino)propyl]amino}-7-oxo-5,6,7,8-tetrahydropyrimido[4,5-d]pyrimidin-4-yl)-4-methyl-N-1,3-thiazol-2-ylbenzamide]	statistically significant inhibition of neutrophilia
Cc1ccc(C(=O)Nc2ccc(C)c(-c3nc(N4CCC(N)CC4)nc4c3CNC(=O)N4c3c(F)cccc3F)c2)cc1F [Example 24, N-{3-[2-(4-amino-1-piperidinyl)-8-(2,6-difluorophenyl)-7-oxo-5,6,7,8-tetrahydropyrimido[4,5-d]pyrimidin-4-yl]-4-methylphenyl}-3-fluoro-4-methylbenzamide]	statistically nonsignificant inhibition of neutrophilia
